Data: patent US20200323991A1, “PBD CONJUGATES FOR TREATING DISEASES” (ENDOCYTE, INC., priority 2016, published 2020)
Where two headings read alike, the source gives them in different places.

Tests used:
[1] = test system: KB cells; type: cell-based, human; settings: read-out: IC50 value, 3H-thymidine incorporation
Description: The conjugates described herein were evaluated using an in vitro cytotoxicity assay that predicted the ability of the drug to inhibit the growth of the corresponding targeted cells, such as, but not limited to the following
It is to be understood that the choice of cell type can be made on the basis of the susceptibility of those selected cells to the drug that forms the conjugate, and the relative expression of the cell surface receptor or target antigen. The test conjugates were conjugates of a cell surface receptor or target antigen binding compound and PBD prodrugs, poly-PBD prodrugs, and mixed PBDs, as described herein. The test cells were exposed to varying concentrations of the conjugates, and optionally also in the absence or presence of at least a 100-fold excess of the unconjugated cell surface receptor or target antigen binding compound for competition studies to assess activity as being specific to the cell surface receptor or target antigen.
KB cells were seeded in individual 24-well Falcon plates and allowed to form nearly confluent monolayers overnight in folate free Roswell Park Memorial Institute (FFRPMI)/Heat-Inactivated Fetal Calf Serum (HIFCS). Thirty minutes prior to the addition of folate-conjugate, spent medium was aspirated from all wells and replaced with either fresh FFRPMI or FFRPMI supplemented with 100 μM folic acid. […] Cells were pulsed for 2 h at 37° C., rinsed 4 times with 0.5 mL of medium and then chased in 1 mL of fresh medium up to 72 h. Spent medium was aspirated from all wells and replaced with fresh medium containing 5 μCi/mL of ^3H-thymidine. Following a 2 h incubation at 37° C., cells were washed 3 times with 0.5 mL of PBS and then treated with 0.5 mL of ice-cold 5% trichloroacetic acid per well. After 15 min, the trichloroacetic acid was aspirated and the cells solubilized by the addition of 0.5 mL of 0.25 N sodium hydroxide for 15 min at room temperature. Four hundred and fifty […] of each solubilized sample were transferred to scintillation vials containing 3 mL of Ecolume scintillation cocktail and counted in a liquid scintillation counter. Final results were expressed as the percentage of ^3H-thymidine incorporation relative to untreated controls.

[2] = test system: KB tumor; assay: Antitumor activity in large KB tumor model; type: in vivo, mice; settings: for KB tumor size compared to untreated control: 0.5 μmol/kg SIW for two weeks
Description: Female Balb/c nu/nu mice were fed ad libitum with folate-deficient chow (Harlan diet #TD01013) for the duration of the experiment. KB tumor cells were inoculated subcutaneously at the right flank of each mouse. Mice were dosed after the tumors reached an average of 100 and 180 mm^3 through the lateral tail vein under sterile conditions in a volume of […] of phosphate-buffered saline (PBS).
Growth of each s.c. tumor was followed by measuring the tumor two times per week. Tumors were measured in two perpendicular directions using Vernier calipers, and their volumes were calculated as 0.5×L×W^2, where L=measurement of longest axis in mm and W=measurement of axis perpendicular to L in mm.

[3] = with excess folate (100 μM folic acid)
[4] = without excess folate, 2 h pulse, chase up to 72 h
[5] = 0.5 μmol/kg, once a week for two weeks

C=C1C[C@H]2C=Nc3cc(OCCCCCOc4cc(NC(=O)OCC(C)(C)SSCCC(=O)NCCNC(=O)CCOCCOCCOCCOCCOCCOCCOCCOCCOCCOCCOCCOCCNC(=O)CCN5C(=O)CC(SC[C@H](NC(=O)[C@H](CC(=O)O)NC(=O)[C@H](CC(=O)O)NC(=O)[C@H](CCCNC(=N)N)NC(=O)[C@H](CC(=O)O)NC(=O)CC[C@H](NC(=O)c6ccc(NCc7cnc8nc(N)[nH]c(=O)c8n7)cc6)C(=O)O)C(=O)O)C5=O)c(C(=O)N5CC(=C)C[C@H]5/C=N/OC)cc4OC)c(OC)cc3C(=O)N2C1 (stereo partly shown) [Conjugate 20] was tested, and the IC50 [1, 3] was 0.7 nM, the IC50 [1, 4] was 0.04 nM and the “KB tumor size compared to untreated control” value [2] was “decreased KB tumor size”.

In the case of C=C1C[C@H]2C=Nc3cc(OCCCCCOc4cc(NC(=O)OCCSSC(C)(C)[C@H](NC(=O)[C@H](CC(=O)O)NC(=O)[C@H](CC(=O)O)NC(=O)[C@H](CCCNC(=N)N)NC(=O)[C@H](CC(=O)O)NC(=O)CC[C@H](NC(=O)c5ccc(NCc6cnc7nc(N)[nH]c(=O)c7n6)cc5)C(=O)O)C(=O)O)c(C(=O)N5CC(=C)C[C@H]5/C=N/OC)cc4OC)c(OC)cc3C(=O)N2C1 [Conjugate 32], the IC50 [1, 3] is reported as 57 nM and the IC50 [1, 4] is reported as 2 nM.

Work on C=C1C[C@H]2[C@H](O)N(C(=O)OCC(C)SSC[C@H](CC(=O)[C@H](CC(=O)O)NC(=O)[C@H](CC(=O)O)NC(=O)[C@H](CCCNC(=N)N)NC(=O)[C@H](CC(=O)O)NC(=O)CC[C@H](NC(=O)c3ccc(NCc4cnc5nc(N)[nH]c(=O)c5n4)cc3)C(=O)O)C(=O)O)c3cc(OCCCCCOc4cc5c(cc4OC)C(=O)N4CC(=C)C[C@H]4[C@H](O)N5C(=O)OCC(C)SSC[C@H](NC(=O)[C@H](CC(=O)O)NC(=O)[C@H](CC(=O)O)NC(=O)[C@H](CCCNC(=N)N)NC(=O)[C@H](CC(=O)O)NC(=O)CC[C@H](NC(=O)c4ccc(NCc5cnc6nc(N)[nH]c(=O)c6n5)cc4)C(=O)O)C(=O)O)c(OC)cc3C(=O)N2C1 (stereo partly shown) [Conjugate 2] yielded an IC50 [1, 3] of 16 nM, an IC50 [1, 4] of 0.14 nM and a cures [2, 5] of 100%.

For C=C1C[C@H]2C=Nc3cc(OCCCCCOc4cc5c(cc4OC)C(=O)N4CC(=C)C[C@H]4C(O)N5C(=O)OCC(C)(C)SSCCC(=O)NCCNC(=O)CCOCCOCCOCCOCCNC(=O)CCN4C(=O)CC(SC[C@H](NC(=O)[C@H](CC(=O)O)NC(=O)[C@H](CC(=O)O)NC(=O)[C@H](CCCNC(=N)N)NC(=O)[C@H](CC(=O)O)NC(=O)CC[C@H](NC(=O)c5ccc(NCc6cnc7nc(N)[nH]c(=O)c7n6)cc5)C(=O)O)C(=O)O)C4=O)c(OC)cc3C(=O)N2C1 (stereo partly shown) [Conjugate 24], the IC50 [1, 3] was 1.8 nM and the IC50 [1, 4] was 0.079 nM.

C=C1C[C@H]2C=Nc3cc(OCCCCCOc4cc(N)c(C(=O)N5CC(=C)C[C@H]5C5OCCN5C(=O)OCC(C)(C)SSCCC(=O)NCCNC(=O)CCOCCOCCOCCOCCOCCOCCOCCOCCOCCOCCOCCOCCOCCOCCOCCOCCOCCOCCOCCOCCOCCOCCOCCOCCOCCOCCOCCOCCOCCOCCOCCOCCOCCOCCOCCOCCNC(=O)CCN5C(=O)CC(SC[C@H](NC(=O)[C@H](CC(=O)O)NC(=O)[C@H](CC(=O)O)NC(=O)[C@H](CCCNC(=N)N)NC(=O)[C@H](CC(=O)O)NC(=O)CC[C@H](NC(=O)c6ccc(NCc7cnc8nc(N)[nH]c(=O)c8n7)cc6)C(=O)O)C(=O)O)C5=O)cc4OC)c(OC)cc3C(=O)N2C1 (stereo partly shown) [Conjugate 7] was tested, and the IC50 [1, 3] was 5 nM, the IC50 [1, 4] was 0.13 nM and the cures [2, 5] was 100%.

In the case of C=C1C[C@H]2C=Nc3cc(OCCCCCOc4cc(NC(=O)OCCCSSC[C@H](NC(=O)[C@H](CC(=O)O)NC(=O)[C@H](CC(=O)O)NC(=O)[C@H](CCCNC(=N)N)NC(=O)[C@H](CC(=O)O)NC(=O)CC[C@H](NC(=O)c5ccc(NCc6cnc7nc(N)[nH]c(=O)c7n6)cc5)C(=O)O)C(=O)O)c(C(=O)N5CC(=C)C[C@H]5/C=N/OC)cc4OC)c(OC)cc3C(=O)N2C1 [Conjugate 31], the IC50 [1, 4] is reported as 0.647 nM.

C=C1C[C@H]2C=Nc3cc(OCCCCCOc4cc(NC(=O)OCCSSC[C@H](NC(=O)[C@H](CC(=O)O)NC(=O)[C@H](CC(=O)O)NC(=O)[C@H](CCCNC(=N)N)NC(=O)[C@H](CC(=O)O)NC(=O)CC[C@H](NC(=O)c5ccc(NCc6cnc7nc(N)[nH]c(=O)c7n6)cc5)C(=O)O)C(=O)O)c(C(=O)N5CC(=C)C[C@H]5/C=N/OC)cc4OC)c(OC)cc3C(=O)N2C1 [Conjugate 16] was tested, and the IC50 [1, 3] was 5 nM, the IC50 [1, 4] was 0.07 nM and the complete responses [2, 5] was 40%. For the same compound, the cures [2, 5] was 60%.

C=C1C[C@H]2C=Nc3cc(OCCCCCOc4cc(N)c(C(=O)N5CC(=C)C[C@H]5C5OCCN5C(=O)OCC(C)(C)SSCCC(=O)NCCNC(=O)CCCCCN5C(=O)CC(SC[C@H](NC(=O)[C@H](CC(=O)O)NC(=O)[C@H](CC(=O)O)NC(=O)[C@H](CCCNC(=N)N)NC(=O)[C@H](CC(=O)O)NC(=O)CC[C@H](NC(=O)c6ccc(NCc7cnc8nc(N)[nH]c(=O)c8n7)cc6)C(=O)O)C(=O)O)C5=O)cc4OC)c(OC)cc3C(=O)N2C1 (stereo partly shown) [Conjugate 22] gave an IC50 [1, 3] of 1.4 nM and an IC50 [1, 4] of 0.14 nM.

In the case of C=C1C[C@H]2C=Nc3cc(OCCCCCOc4cc(N)c(C(=O)N5CC(=C)C[C@H]5C5OCCN5C(=O)OCC(C)(C)SSCCC(=O)NCCNC(=O)CCOCCOCCOCCOCCOCCOCCOCCOCCOCCOCCOCCOCCNC(=O)CCN5C(=O)CC(SC[C@H](NC(=O)[C@H](CC(=O)O)NC(=O)[C@H](CC(=O)O)NC(=O)[C@H](CCCNC(=N)N)NC(=O)[C@H](CC(=O)O)NC(=O)CC[C@H](NC(=O)c6ccc(NCc7cnc8nc(N)[nH]c(=O)c8n7)cc6)C(=O)O)C(=O)O)C5=O)cc4OC)c(OC)cc3C(=O)N2C1 (stereo partly shown) [Conjugate 8], the IC50 [1, 3] is reported as 0.3 nM, the IC50 [1, 4] is reported as 0.055 nM and the cures ([2]; 0.2 μmol/kg, once a week for two weeks) is reported as 100%.

In the case of C=C1CC(/C=N/OC)N(C(=O)c2cc(OC)c(OCCCCCOc3cc4c(cc3OC)C(=O)N3CC(=C)C[C@H]3C=N4)cc2NC(=O)OCC(C)(C)SSCCC(=O)NCCNC(=O)CCN2C(=O)CC(SC[C@H](NC(=O)[C@H](CC(=O)O)NC(=O)[C@H](CC(=O)O)NC(=O)[C@H](CCCNC(=N)N)NC(=O)[C@H](CC(=O)O)NC(=O)CC[C@H](NC(=O)c3ccc(NCc4cnc5nc(N)[nH]c(=O)c5n4)cc3)C(=O)O)C(=O)O)C2=O)C1 (stereo partly shown) [Conjugate 18], the IC50 [1, 3] is reported as 2 nM, the IC50 [1, 4] is reported as 0.065 nM and the “KB tumor size compared to untreated control” value [2] is reported as “decreased KB tumor size”.

C=C1C[C@H]2C=Nc3cc(OCCCCCOc4cc5c(cc4OC)C(=O)N4CC(=C)C[C@H]4C(=O)N5COC(=O)CCCSSC[C@@H](NC(=O)[C@H](CCC(=O)NC[C@H](O)[C@@H](O)[C@H](O)[C@H](O)CO)NC(=O)[C@@H](CCC(=O)O)NC(=O)[C@H](CCC(=O)NC[C@H](O)[C@@H](O)[C@H](O)[C@H](O)CO)NC(=O)[C@@H](CCC(=O)O)NC(=O)[C@H](CCC(=O)NC[C@H](O)[C@@H](O)[C@H](O)[C@H](O)CO)NC(=O)CC[C@H](NC(=O)c4ccc(NCc5cnc6nc(N)[nH]c(=O)c6n5)cc4)C(=O)O)C(=O)O)c(OC)cc3C(=O)N2C1 [Conjugate 9] was tested, and the IC50 [1, 3] was 67 nM, the IC50 [1, 4] was 0.8 nM and the “PRs (partial responses)” value ([2]; 1 μmol/kg, once a week for two weeks) was 0%.

Work on C=C1C[C@H]2C=Nc3cc(OCCCCCOc4cc(N)c(C(=O)N5CC(=C)C[C@H]5C5OCCN5C(=O)OCC(C)(C)SSCCC(=O)NCCNC(=O)CCOCCOCCOCCOCCNC(=O)CCN5C(=O)CC(SC[C@@H](NC(=O)[C@H](CCC(=O)NC[C@H](O)[C@@H](O)[C@H](O)[C@H](O)CO)NC(=O)[C@@H](CCC(=O)O)NC(=O)[C@H](CCC(=O)NC[C@H](O)[C@@H](O)[C@H](O)[C@H](O)CO)NC(=O)[C@@H](CCC(=O)O)NC(=O)[C@H](CCC(=O)NC[C@H](O)[C@@H](O)[C@H](O)[C@H](O)CO)NC(=O)CC[C@H](NC(=O)c6ccc(NCc7cnc8nc(N)[nH]c(=O)c8n7)cc6)C(=O)O)C(=O)O)C5=O)cc4OC)c(OC)cc3C(=O)N2C1 (stereo partly shown) [Conjugate 6] yielded an IC50 [1, 3] of 3 nM, an IC50 [1, 4] of 0.048 nM and a complete responses [2, 5] of 50%. For the same compound, the cures [2, 5] was 50%.

Work on C=C1C[C@H]2C=Nc3cc(OCCCCCOc4cc(NC(=O)OCCSSC[C@@H](C)NC(=O)CCOCCOCCOCCOCCNC(=O)[C@H](CC(=O)O)NC(=O)[C@H](CC(=O)O)NC(=O)[C@H](CCCNC(=N)N)NC(=O)[C@H](CC(=O)O)NC(=O)CC[C@H](NC(=O)c5ccc(NCc6cnc7nc(N)[nH]c(=O)c7n6)cc5)C(=O)O)c(C(=O)N5CC(=C)C[C@H]5/C=N/OC)cc4OC)c(OC)cc3C(=O)N2C1 [Conjugate 26] yielded an IC50 [1, 3] of 1.6 nM and an IC50 [1, 4] of 0.028 nM.

Work on C=C1C[C@H]2C=Nc3cc(OCCCCCOc4cc(NC(=O)OCC(C)SSC[C@H](NC(=O)CCOCCOCCOCCOCCNC(=O)[C@H](CC(=O)O)NC(=O)[C@H](CC(=O)O)NC(=O)[C@H](CCCNC(=N)N)NC(=O)[C@H](CC(=O)O)NC(=O)CC[C@H](NC(=O)c5ccc(NCc6cnc7nc(N)[nH]c(=O)c7n6)cc5)C(=O)O)C(=O)O)c(C(=O)N5CC(=C)C[C@H]5/C=N/OC)cc4OC)c(OC)cc3C(=O)N2C1 (stereo partly shown) [Conjugate 27] yielded an IC50 [1, 3] of 6.1 nM and an IC50 [1, 4] of 0.091 nM.
